In PubChem BioAssay AID248 (DTP/NCI, 2004):
Values joined by “and” are separate entries in the source; they are usually repeats but may differ in a detail not shown here. Identical values can stand only once. Toxic doses and inconclusive results are not listed. No stated cut-off is given here; in the data, active means T/C of 150% or more; inactive means T/C below 125%.

System: L1210 leukemia ip in BDF1 mice, survival T/C
Assay: NCI In Vivo Anticancer Drug Screen. Data for tumor model L1210 Leukemia (intraperitoneal) in B6D2F1 (BDF1) mice
Settings: endpoint: mean survival time, higher = longer survival
Procedure, shortened: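 Each compound was tested against a transplantable tumor grown in mice. The endpoint was survival, with treated animals benchmarked against vehicle controls as a simple ratio.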

[1] = dose: 100.0 mg/kg/injection, schedule: Q01DX001 (ip), vehicle: saline
[2] = dose: 200.0 mg/kg/injection, schedule: Q01DX001 (ip), vehicle: saline
[3] = dose: 50.0 mg/kg/injection, schedule: Q01DX009 (ip), vehicle: saline
[4] = dose: 100.0 mg/kg/injection, schedule: Q01DX009 (ip), vehicle: saline
[5] = dose: 100.0 mg/kg/injection, schedule: Q04DX003 (ip), vehicle: saline
[6] = dose: 200.0 mg/kg/injection, schedule: Q01DX009 (ip), vehicle: saline
[7] = dose: 200.0 mg/kg/injection, schedule: Q04DX003 (ip), vehicle: saline
[8] = dose: 400.0 mg/kg/injection, schedule: Q04DX003 (ip), vehicle: saline
[9] = dose: 100.0 mg/kg/injection, schedule: Q04DX002 (ip), vehicle: saline with Tween-80
[10] = dose: 100.0 mg/kg/injection, schedule: Q04DX003 (ip), vehicle: saline with Tween-80
[11] = dose: 400.0 mg/kg/injection, schedule: Q01DX009 (ip), vehicle: saline
[12] = dose: 100.0 mg/kg/injection, schedule: Q04DX003 (ip), vehicle: Klucel (hydroxypropylcellulose) (HPC)
[13] = dose: 200.0 mg/kg/injection, schedule: Q04DX003 (ip), vehicle: Klucel (hydroxypropylcellulose) (HPC)
[14] = dose: 400.0 mg/kg/injection, schedule: Q04DX003 (ip), vehicle: Klucel (hydroxypropylcellulose) (HPC)

Measured: T/C

O=C(O)c1ccc(C(=O)c2ccc([N+](=O)[O-])cc2)cc1
inactive: dose: 25.0 mg/kg/injection, schedule: Q01DX009 (ip), vehicle: carboxymethylcellulose (CMC) 102 % of control and 104 % of control | dose: 50.0 mg/kg/injection, schedule: Q01DX009 (ip), vehicle: carboxymethylcellulose (CMC) 95 % of control and 108 % of control | dose: 100.0 mg/kg/injection, schedule: Q01DX001 (ip), vehicle: carboxymethylcellulose (CMC) 92 % of control and 97 % of control | dose: 100.0 mg/kg/injection, schedule: Q01DX009 (ip), vehicle: carboxymethylcellulose (CMC) 95 % of control and 102 % of control | dose: 100.0 mg/kg/injection, schedule: Q04DX002 (ip), vehicle: carboxymethylcellulose (CMC) 101 % of control and 102 % of control | dose: 100.0 mg/kg/injection, schedule: Q04DX003 (ip), vehicle: carboxymethylcellulose (CMC) 105 % of control and 114 % of control | dose: 200.0 mg/kg/injection, schedule: Q01DX001 (ip), vehicle: carboxymethylcellulose (CMC) 98 % of control and 100 % of control | dose: 200.0 mg/kg/injection, schedule: Q04DX002 (ip), vehicle: carboxymethylcellulose (CMC) 93 % of control and 95 % of control | dose: 200.0 mg/kg/injection, schedule: Q04DX003 (ip), vehicle: carboxymethylcellulose (CMC) 97 % of control and 98 % of control | dose: 400.0 mg/kg/injection, schedule: Q01DX001 (ip), vehicle: carboxymethylcellulose (CMC) 93 % of control and 100 % of control | dose: 400.0 mg/kg/injection, schedule: Q01DX009 (ip), vehicle: carboxymethylcellulose (CMC) 104 % of control | dose: 400.0 mg/kg/injection, schedule: Q04DX002 (ip), vehicle: carboxymethylcellulose (CMC) 95 % of control and 98 % of control | dose: 400.0 mg/kg/injection, schedule: Q04DX003 (ip), vehicle: carboxymethylcellulose (CMC) 96 % of control and 88 % of control

Cn1cncc1CC1COC(=O)C1C(O)c1ccccc1 (stereo unspecified)
inactive: [1] 108 % of control | [2] 107 % of control

NC(N)=N/N=C(/C=N/N=C(N)N)C(O)C(O)CO (stereo unspecified)
inactive: dose: 15.0 mg/kg/injection, schedule: Q01DX Z (ip), vehicle: carboxymethylcellulose (CMC) 101 % of control | dose: 30.0 mg/kg/injection, schedule: Q01DX Z (ip), vehicle: carboxymethylcellulose (CMC) 98 % of control | [3] 98 % of control | dose: 60.0 mg/kg/injection, schedule: Q01DX Z (ip), vehicle: carboxymethylcellulose (CMC) 104 % of control | [4] 98 % of control | [5] 102 % of control | dose: 120.0 mg/kg/injection, schedule: Q01DX Z (ip), vehicle: carboxymethylcellulose (CMC) 101 % of control | [6] 95 % of control | [7] 94 % of control | [8] 100 % of control

Cc1ccc(C2(O)CCN(CCCC(=O)c3ccc(F)cc3)CC2)cc1
inactive: dose: 3.12 mg/kg/injection, schedule: Q01DX009 (ip), vehicle: Klucel (hydroxypropylcellulose) (HPC) 101 % of control | dose: 6.25 mg/kg/injection, schedule: Q01DX009 (ip), vehicle: Klucel (hydroxypropylcellulose) (HPC) 104 % of control | dose: 12.5 mg/kg/injection, schedule: Q01DX009 (ip), vehicle: Klucel (hydroxypropylcellulose) (HPC) 101 % of control | dose: 25.0 mg/kg/injection, schedule: Q01DX009 (ip), vehicle: Klucel (hydroxypropylcellulose) (HPC) 113 % of control | dose: 50.0 mg/kg/injection, schedule: Q01DX009 (ip), vehicle: Klucel (hydroxypropylcellulose) (HPC) 104 % of control

CCC(C)(C(=O)OCCOCCCl)c1cccc2ccccc12 (stereo unspecified)
inactive: [9] 95 % of control | dose: 200.0 mg/kg/injection, schedule: Q04DX002 (ip), vehicle: saline with Tween-80 104 % of control | dose: 400.0 mg/kg/injection, schedule: Q04DX002 (ip), vehicle: saline with Tween-80 101 % of control

COC(=O)c1cc(C)cc(Oc2ccccc2N)c1C
inactive: [1] 88 % of control | [2] 102 % of control | dose: 400.0 mg/kg/injection, schedule: Q01DX001 (ip), vehicle: saline 93 % of control

O=C(/C=C/C(=O)N1CCOCC1)N1CCOCC1
inactive: [10] 100 % of control | dose: 200.0 mg/kg/injection, schedule: Q04DX003 (ip), vehicle: saline with Tween-80 104 % of control | dose: 400.0 mg/kg/injection, schedule: Q04DX003 (ip), vehicle: saline with Tween-80 116 % of control

Cc1ccc([N+](=O)[O-])cc1S(=O)(=O)O
inactive: [4] 95 % of control | [5] 102 % of control | [6] 102 % of control | [7] 102 % of control | [11] 98 % of control | [8] 96 % of control

CC[n+]1c(C)sc2cc(Cl)c(-c3ccccc3)cc21
inactive: [5] 98 % of control | [7] 101 % of control | [8] 95 % of control

C/C=C(\Br)C(=O)O
inactive: dose: 100.0 mg/kg/injection, schedule: Q04DX002 (ip), vehicle: other 104 % of control | [10] 92 % of control | dose: 200.0 mg/kg/injection, schedule: Q04DX002 (ip), vehicle: other 104 % of control

O=C(CC(c1ccccc1)c1ccccc1)NS(=O)(=O)c1ccccc1
inactive: [12] 94 % of control | [13] 97 % of control | [14] 97 % of control

N#CC(O)Cc1ccccc1 (stereo unspecified)
inactive: dose: 2.5 mg/kg/injection, schedule: Q01DX009 (ip), vehicle: saline 95 % of control | dose: 5.0 mg/kg/injection, schedule: Q01DX009 (ip), vehicle: saline 90 % of control | dose: 10.0 mg/kg/injection, schedule: Q01DX009 (ip), vehicle: saline 97 % of control

C/C=C/C1CCCCC1
inactive: [3] 97 % of control | [4] 97 % of control | [6] 93 % of control

Cc1ccc(C(=O)C=Nc2ccc(Br)cc2)cc1
inactive: dose: 100.0 mg/kg/injection, schedule: Q01DX001 (ip), vehicle: Klucel (hydroxypropylcellulose) (HPC) 104 % of control | dose: 200.0 mg/kg/injection, schedule: Q01DX001 (ip), vehicle: Klucel (hydroxypropylcellulose) (HPC) 95 % of control | dose: 400.0 mg/kg/injection, schedule: Q01DX001 (ip), vehicle: Klucel (hydroxypropylcellulose) (HPC) 112 % of control

NC(=O)C(N)=O
inactive: [4] 93 % of control | [5] 106 % of control | [6] 103 % of control | [7] 101 % of control | [11] 101 % of control | [8] 97 % of control

Cc1c(Cl)cccc1NC(=O)c1ccc([N+](=O)[O-])cc1
inactive: dose: 100.0 mg/kg/injection, schedule: Q01DX009 (ip), vehicle: saline with Tween-80 91 % of control | dose: 200.0 mg/kg/injection, schedule: Q01DX009 (ip), vehicle: saline with Tween-80 89 % of control | dose: 400.0 mg/kg/injection, schedule: Q01DX009 (ip), vehicle: saline with Tween-80 89 % of control

Cc1ccc(S(=O)(=O)C2CCCC/C2=N\Nc2ccc([N+](=O)[O-])cc2[N+](=O)[O-])cc1 (stereo unspecified)
inactive: dose: 100.0 mg/kg/injection, schedule: Q01DX001 (ip), vehicle: other 105 % of control | dose: 200.0 mg/kg/injection, schedule: Q01DX001 (ip), vehicle: other 103 % of control | dose: 400.0 mg/kg/injection, schedule: Q01DX001 (ip), vehicle: other 96 % of control

O=C1CC(c2cccc(S(=O)(=O)O)c2)=NN1c1ccc([N+](=O)[O-])cn1
inactive: dose: 12.5 mg/kg/injection, schedule: Q04DX003 (ip), vehicle: saline 95 % of control | dose: 25.0 mg/kg/injection, schedule: Q04DX003 (ip), vehicle: saline 95 % of control | dose: 50.0 mg/kg/injection, schedule: Q04DX003 (ip), vehicle: saline 95 % of control

CCc1cc2c(cc1C(=O)/C=C\c1cccc3ccccc13)C(C)(C)CCC2(C)C
inactive: dose: 25.0 mg/kg/injection, schedule: Q04DX002 (ip), vehicle: saline with Tween-80 89 % of control | [9] 89 % of control

CCC[CH2][Sn]1([CH2]CCC)[O]C(=O)c2cccc([N+](=O)[O-])c2C(=O)[O]1
inactive: [1] 117 % of control

CCOC(=O)C1CCC(=O)NC1=O (stereo unspecified)
inactive: [4] 111 % of control | [5] 98 % of control | [6] 108 % of control | [7] 102 % of control | [11] 101 % of control | [8] 104 % of control

Cn1c2c(c(=O)n(C)c1=O)C(C=O)C(=O)N2 (stereo unspecified)
inactive: dose: 100.0 mg/kg/injection, schedule: Q04DX002 (ip), vehicle: saline 101 % of control | dose: 200.0 mg/kg/injection, schedule: Q04DX002 (ip), vehicle: saline 87 % of control | dose: 400.0 mg/kg/injection, schedule: Q04DX002 (ip), vehicle: saline 90 % of control

CCCCCCCCCC(=O)CC
inactive: dose: 100.0 mg/kg/injection, schedule: Q01DX009 (ip), vehicle: Klucel (hydroxypropylcellulose) (HPC) 104 % of control | [12] 110 % of control | dose: 200.0 mg/kg/injection, schedule: Q01DX009 (ip), vehicle: Klucel (hydroxypropylcellulose) (HPC) 96 % of control | [13] 97 % of control | dose: 400.0 mg/kg/injection, schedule: Q01DX009 (ip), vehicle: Klucel (hydroxypropylcellulose) (HPC) 102 % of control | [14] 93 % of control
